The results in this text go back to US7998965B2, “Glutamate aggrecanase inhibitors” (Wyeth LLC, priority 2005, dated 2011).

For test [1], the target named is T1, purified recombinant human Aggrecanase-2 (Ag2t-Phe628-Strep) (Homo sapiens, UniProt Q9UNA0).
T1 construct: the form used is denoted as Ag2t-Phe628-Strep (MW=41,737)
T1 sequence (Q9UNA0 262-628): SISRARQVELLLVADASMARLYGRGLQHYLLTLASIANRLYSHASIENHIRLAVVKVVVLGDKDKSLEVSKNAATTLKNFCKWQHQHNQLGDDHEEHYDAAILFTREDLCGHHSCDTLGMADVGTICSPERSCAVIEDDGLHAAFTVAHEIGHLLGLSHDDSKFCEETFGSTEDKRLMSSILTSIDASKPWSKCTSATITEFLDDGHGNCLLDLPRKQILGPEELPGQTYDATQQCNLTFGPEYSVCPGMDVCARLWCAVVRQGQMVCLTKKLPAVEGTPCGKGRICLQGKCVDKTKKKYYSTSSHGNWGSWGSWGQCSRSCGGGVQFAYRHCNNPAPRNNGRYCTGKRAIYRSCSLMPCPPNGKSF
Kind of test: In vitro fluorescence screen for Aggrecanase-2 inhibitors. The test is classed as biochemical. As to conditions: for IC50: read-out: Agg 2 IC50; for Ki: read-out: Ki Agg2.

Test [2] has as its target T2, purified recombinant human Aggrecanase-1 (rAgg1) (Homo sapiens, UniProt O75173).
T2 sequence (O75173 213-837): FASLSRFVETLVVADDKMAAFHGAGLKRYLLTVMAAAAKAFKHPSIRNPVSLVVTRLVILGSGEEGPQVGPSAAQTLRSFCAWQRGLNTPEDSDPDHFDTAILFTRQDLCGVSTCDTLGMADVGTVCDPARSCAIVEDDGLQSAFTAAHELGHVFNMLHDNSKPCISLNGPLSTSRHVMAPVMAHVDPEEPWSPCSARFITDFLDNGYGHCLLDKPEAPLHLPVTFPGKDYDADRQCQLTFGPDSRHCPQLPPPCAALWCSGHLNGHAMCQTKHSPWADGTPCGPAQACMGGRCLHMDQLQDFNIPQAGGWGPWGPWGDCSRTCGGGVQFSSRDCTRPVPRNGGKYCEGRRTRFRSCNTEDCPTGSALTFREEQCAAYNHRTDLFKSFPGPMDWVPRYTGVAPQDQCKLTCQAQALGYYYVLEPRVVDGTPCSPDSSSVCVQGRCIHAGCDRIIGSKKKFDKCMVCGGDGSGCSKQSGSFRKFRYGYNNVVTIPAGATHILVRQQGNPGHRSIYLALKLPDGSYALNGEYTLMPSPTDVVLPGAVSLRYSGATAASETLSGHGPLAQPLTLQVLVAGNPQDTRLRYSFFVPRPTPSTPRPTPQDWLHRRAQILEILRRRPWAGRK
As to the kind of experiment: In vitro fluorescence screen for Aggrecanase-1 inhibitors. Details: Agg1 % at concentration: scale not given here. As to conditions: for IC50: read-out: Agg1 IC50; for Ki: read-out: Ki Agg1. The test is classed as biochemical.

Where two headings read alike, the source gives them in different places. A value given as a limit tells only on which side of the number the result lay.

What is called IC50 is the concentration needed to halve the response being measured. As to `Cc1ccc(-c2ccc(C(=O)N[C@@H](CCC(=O)O)C(=O)NC(C)(C)Cc3ccc(F)cc3)cc2)cc1F` [Example 17GG, N^2-[(3′-fluoro-4′-methylbiphenyl-4-yl)carbonyl]-N-[2-(4-fluorophenyl)-1,1-dimethylethyl]-L-α-glutamine], the 50% inhibitory concentration (IC50) worked out at 113 nM in test [1] (Table 2) and 34 nM in test [2] (Table 2).

By Ki is commonly meant the equilibrium dissociation constant of an inhibitor or competing ligand from its target. With `COc1cccc(-c2ccc(C(=O)N[C@@H](CCC(=O)O)C(=O)NC(C)(C)Cc3ccccc3)s2)c1` [N-(1,1-dimethyl-2-phenylethyl)-N^2-{[5-(3-methoxyphenyl)-2-thienyl]carbonyl}-L-α-glutamine], the IC50 in test [1] (Table 3) was 70 to 200 nM; in test [2] (Table 3), below 30 nM. The values for the inhibition constant (Ki) in test [1] (Table 3) and in test [2] (Table 3) were 151 nM and below 3 nM, respectively.

`O=C(O)CC[C@H](NC(=O)c1ccc2c(c1)Cc1ccccc1-2)C(=O)NCc1ccccc1` [Example 8JJJJJ, N^1-benzyl-N^2-(9H-fluoren-2-ylcarbonyl)-L-α-glutamine]: the IC50 in test [1] (Table 2) was 1100 nM; in test [2] (Table 2) it was 191 nM.

In the case of `CC(C)(Cc1ccccc1)NC(=O)[C@H](CCC(=O)O)NC(=O)c1ccc(-c2cccs2)cc1` [N-(1,1-dimethyl-2-phenylethyl)-N^2-[4-(2-thienyl)benzoyl]-L-α-glutamine], in test [1] (Table 3), the IC50 lay in the range of 60 to 200 nM and the Ki was 38 nM. Moreover, in test [2] (Table 3), the IC50 is below 30 nM and the inhibition constant (Ki) was below 3 nM.

`CC(C)(Cc1ccc(F)cc1)NC(=O)[C@H](CCC(N)=O)NC(=O)c1ccc(-c2ccccc2)cc1` [Example 8LLLLLL, N^2-(biphenyl-4-ylcarbonyl)-N^1-[2-(4-fluorophenyl)-1,1-dimethylethyl]-L-α-glutamamide]: the IC50 is above 100000 nM in test [1] (Table 2) and above 25000 nM in test [2] (Table 2).

With `C[C@@H](NC(=O)[C@H](CCC(=O)O)NC(=O)c1ccc2c(c1)Cc1ccccc1-2)c1ccccc1` [Example 8VVVVV, N^2-(9H-fluoren-2-ylcarbonyl)-N^1-[(1R)-1-phenylethyl]-L-α-glutamine], the IC50 was determined as 1560 nM in test [1] (Table 2) and 221 nM in test [2] (Table 2).

For the compound `O=C(O)CC[C@H](NC(=O)c1ccc(-c2ccccc2)cc1)C(=O)NCCc1cccc(Br)c1` [Example 8MMM, N^2-(biphenyl-4-ylcarbonyl)-N^1-[2-(3-bromophenyl)ethyl]-L-α-glutamine], the concentration for half-maximal inhibition (IC50) came to 500 nM in test [1] (Table 1) and 40 nM in test [2] (Table 1).

Regarding `O=C(O)CC[C@H](NC(=O)c1ccc(-c2ccc(OCc3cccc(-c4ccccc4)c3)cc2)cc1)C(=O)NCc1ccccc1` [Example 15U, N-benzyl-N^2-{[4′-(biphenyl-3-ylmethoxy)biphenyl-4-yl]carbonyl}-L-α-glutamine], the inhibition at 11 µM in test [1] (Table 3, at 11000 (nM), read-out: Agg 2 % at concentration) was 30%. Also, in test [1] (Table 3), the 50% inhibitory concentration (IC50) was found to be 600 nM. The “Agg1 % at concentration” value in test [2] (Table 3, at 100 (nM)) was 53%; in test [2] (Table 3, at 1000 (nM)), 53%.

In the case of `COc1cccc(-c2ccc(C(=O)N[C@@H](CCC(=O)O)C(=O)NC(C)(C)Cc3ccc(Cl)cc3)s2)c1` [Example 8YYYYYYY, N-[2-(4-chlorophenyl)-1,1-dimethylethyl]-N^2-{[5-(3-methoxyphenyl)-2-thienyl]carbonyl}-L-α-glutamine], in test [1] (Table 3), the IC50 lay in the range of 200 to 600 nM and the inhibitory constant (Ki) was found to be 197 nM. In test [2] (Table 3), the IC50 is below 30 nM and the Ki was found to be 27 nM.

`CC(C)(Cc1ccc(F)cc1)NC(=O)[C@H](CCC(=O)O)NC(=O)c1ccc(-c2ccccc2)nc1` [N-[2-(4-fluorophenyl)-1,1-dimethylethyl]-N^2-[(6-phenylpyridin-3-yl)carbonyl]-L-α-glutamine]: the half-inhibitory concentration (IC50) in test [1] (Table 3) stood at 1000 nM; in test [2] (Table 3), 50 nM.

As to `COc1cc(CNC(=O)[C@H](CCC(=O)O)NC(=O)c2ccc(-c3cccc(O)c3)cc2)cc(OC)c1OC` [Example 17RR, N^2-[(3′-hydroxybiphenyl-4-yl)carbonyl]-N-(3,4,5-trimethoxybenzyl)-L-α-glutamine], the IC50 in test [1] (Table 2) was 26 nM; in test [2] (Table 2), below 30 nM.

For the compound `CC(C)Cc1ccc(-c2ccc(C(=O)N[C@@H](CCC(=O)O)C(=O)NC(C)(C)Cc3ccc(F)cc3)cc2)cc1` [Example 17HH, N-[2-(4-fluorophenyl)-1,1-dimethylethyl]-N^2-[(4′-isobutylbiphenyl-4-yl)carbonyl]-L-α-glutamine], the IC50 was 6320 nM in test [1] (Table 2) and 2200 nM in test [2] (Table 2).

For `COc1cccc(-c2ccc(C(=O)N[C@@H](CCC(=O)O)C(=O)NCc3cc(OC)c(OC)c(OC)c3)cc2)c1` [Example 17C, N^2-[(3′-methoxybiphenyl-4-yl)carbonyl]-N-(3,4,5-trimethoxybenzyl)-L-α-glutamine], the concentration for half-maximal inhibition (IC50) in test [1] (Table 2) is 80 nM; in test [2] (Table 2) it was below 30 nM.

For the compound `C[C@@H](CNC(=O)[C@H](CCC(=O)O)NC(=O)c1ccc(-c2ccccc2)cc1)c1ccccc1` [Example 8KKKKKK, N^2-(biphenyl-4-ylcarbonyl)-N-[(2R)-2-phenylpropyl]-L-α-glutamine], the IC50 in test [1] (Table 2) is 1670 nM; in test [2] (Table 2), 350 nM.

Take `COc1cc(CNC(=O)[C@H](CCC(=O)O)NC(=O)c2ccc(-c3ccc(CO)cc3)cc2)cc(OC)c1OC` [Example 8LLLLLLL, N^2-{[4′-(hydroxymethyl)biphenyl-4-yl]carbonyl}-N-(3,4,5-trimethoxybenzyl)-L-α-glutamine]: the IC50 worked out at 3380 nM in test [1] (Table 3) and 228 nM in test [2] (Table 3).

Take `CC(C)(Cc1ccccc1)NC(=O)[C@H](CCC(=O)O)NC(=O)c1ccc(-c2ccc(F)c(Cl)c2)s1` [N^2-{[5-(3-chloro-4-fluorophenyl)-2-thienyl]carbonyl}-N-(1,1-dimethyl-2-phenylethyl)-L-α-glutamine]: the IC50 is 60 to 200 nM in test [1] (Table 3) and below 30 nM in test [2] (Table 3). Moreover, the Ki in test [1] (Table 3) was 156 nM; in test [2] (Table 3), below 3 nM.

As for `CC(C)(Cc1ccc(Cl)cc1)NC(=O)[C@H](CCC(=O)O)NC(=O)c1ccc(-c2ccccc2)nc1` [Example 8XXXXXXXX, N-[2-(4-chlorophenyl)-1,1-dimethylethyl]-N^2-[(6-phenylpyridin-3-yl)carbonyl]-L-α-glutamine], the IC50 stood at 1700 nM in test [1] (Table 3) and 100 nM in test [2] (Table 3).

On to `CC(C)(Cc1ccc(Cl)cc1)NC(=O)[C@H](CCC(=O)O)NC(=O)c1sccc1-c1ccccc1` [N-[2-(4-chlorophenyl)-1,1-dimethylethyl]-N^2-[(3-phenyl-2-thienyl)carbonyl]-L-α-glutamine], for which the results for the IC50 in test [1] (Table 3) and in test [2] (Table 3) were above 100000 nM and above 25000 nM, respectively.

For `Cc1cccc(CNC(=O)[C@H](CCC(=O)O)NC(=O)c2ccc(-c3ccc4c(c3)OCO4)cc2)c1` [Example 17NN, N^2-[4-(1,3-benzodioxol-5-yl)benzoyl]-N-(3-methylbenzyl)-L-α-glutamine], the values for the half-inhibitory concentration (IC50) in test [1] (Table 2) and in test [2] (Table 2) were 729 nM and 200 nM, respectively.

Consider `CCCCN(C)C(=O)[C@H](CCC(=O)O)NC(=O)c1ccc2c(c1)Cc1ccccc1-2` [Example 8FFFFFF, N-butyl-N^2-(9H-fluoren-2-ylcarbonyl)-N-methyl-L-α-glutamine], for which the 50% inhibitory concentration (IC50) in test [1] (Table 2) came to 18100 nM; in test [2] (Table 2) it was 3900 nM.

Regarding `COc1cc(CNC(=O)[C@H](CCC(=O)O)NC(=O)c2ccc(-c3cccc(OCc4ccccc4)c3)cc2)cc(OC)c1OC` [Example 15K, N^2-{[3′-(benzyloxy)biphenyl-4-yl]carbonyl}-N-(3,4,5-trimethoxybenzyl)-L-α-glutamine], the values for the IC50 in test [1] (Table 3) and in test [2] (Table 3) were 379 nM and below 30 nM, respectively.
